Source: patent publication US8372850B2, “Aminopyridines and aminopyrimidines useful as inhibitors of protein kinases” (Vertex Pharmaceuticals Incorporated, priority 2006, dated 2013)

Experiments:
GSK-3β(AA 1-420) = biological target: T1, GSK-3β(AA 1-420) (Homo sapiens, UniProt P49841); assay: GSK-3 Inhibition Assay (standard coupled enzyme system); format: biochemical; details: 20 μM ATP, 30° C.
T1 construct: GSK-3β(AA 1-420)
Protocol: Compounds of the present invention were screened for their ability to inhibit GSK-3β(AA 1-420) activity using a standard coupled enzyme system (Fox et al., Protein Sci. 1998, 7, 2249). Reactions were carried out in a solution containing 100 mM HEPES (pH 7.5), 10 mM MgCl2, 25 mM NaCl, 300 μM NADH, 1 mM DTT and 1.5% DMSO. Final substrate concentrations in the assay were 20 μM ATP (Sigma Chemicals, St Louis, Mo.) and 300 μM peptide (American Peptide, Sunnyvale, Calif.). Reactions were carried out at 30° C. and 20 nM GSK-3β. Final concentrations of the components of the coupled enzyme system were 2.5 mM phosphoenolpyruvate, 300 μM NADH, 30 μg/ml pyruvate kinase and 10 μg/ml lactate dehydrogenase.
An assay stock buffer solution was prepared containing all of the reagents listed above with the exception of ATP and the test compound of the present invention. The assay stock buffer solution (175 μl) was incubated in a 96 well plate with 5 μl of the test compound of the present invention at final concentrations spanning 0.002 μM to 30 μM at 30° C. for 10 min. Typically, a 12-point titration was conducted by preparing serial dilutions (from 10 mM compound stocks) with DMSO of the test compounds of the present invention in daughter plates. The reaction was initiated by the addition of 20 μl of ATP (final concentration 20 μM). Rates of reaction were obtained using a Molecular Devices Spectramax plate reader (Sunnyvale, Calif.) over 10 min at 30° C. The Ki values were determined from the rate data as a function of inhibitor concentration.

[1] = system: rat brains after transient middle cerebral artery occlusion (MCAO); details: cited from earlier work
[2] = range printed with mixed units (500 nM to 1 uM)

T1 sequence (P49841 whole entry, species assumed, the tested form may be a part): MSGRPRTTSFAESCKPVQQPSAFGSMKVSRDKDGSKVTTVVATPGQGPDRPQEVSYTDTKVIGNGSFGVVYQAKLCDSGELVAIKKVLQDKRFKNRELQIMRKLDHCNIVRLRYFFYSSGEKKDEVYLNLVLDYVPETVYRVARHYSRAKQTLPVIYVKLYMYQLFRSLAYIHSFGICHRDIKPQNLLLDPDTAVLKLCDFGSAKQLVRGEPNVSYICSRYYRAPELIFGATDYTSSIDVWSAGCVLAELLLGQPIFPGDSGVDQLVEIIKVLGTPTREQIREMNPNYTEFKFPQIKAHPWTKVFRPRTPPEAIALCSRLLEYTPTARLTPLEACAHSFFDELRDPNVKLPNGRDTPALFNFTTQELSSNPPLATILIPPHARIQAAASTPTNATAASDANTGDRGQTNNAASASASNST

Work on Cc1cc(Nc2cc(N3CCC3)nc(-c3ccccc3Cl)n2)n[nH]1 [Compound I-1, 6-(Azetidin-1-yl)-2-(2-chlorophenyl)-N-(5-methyl-1H-pyrazol-3-yl)pyrimidin-4-amine] yielded a Ki (GSK-3β(AA 1-420); 300 μM peptide, 20 nM GSK-3β) of 50 to 500 nM.
In the case of Cc1cnc(Nc2cc(N3CCC3)nc(-c3ccccc3Cl)n2)s1 [Compound I-2], the Ki (GSK-3β(AA 1-420); 300 μM peptide, 20 nM GSK-3β) is reported as less than 50 nM.
In the case of Fc1cnc2[nH]nc(Nc3cc(N4CCC4)nc(-c4ccccc4Cl)n3)c2c1 [Compound I-3], the Ki (GSK-3β(AA 1-420); 300 μM peptide, 20 nM GSK-3β) is reported as less than 50 nM.
With Cc1cc(Nc2cc(N3CC(F)(F)C3)nc(-c3ccccc3Cl)n2)n[nH]1 [Compound I-4] the Ki (GSK-3β(AA 1-420); 300 μM peptide, 20 nM GSK-3β) was 50 to 500 nM.
Molecule Cc1cc(Nc2cc(N3CC(F)(C4CC4)C3)nc(-c3ccccc3Cl)n2)n[nH]1 [Compound I-5] has a Ki (GSK-3β(AA 1-420); 300 μM peptide, 20 nM GSK-3β) of 50 to 500 nM.
For Cc1cc(Nc2cc(N3CC(O)(C4CC4)C3)nc(-c3ccccc3Cl)n2)n[nH]1 [Compound I-6], the Ki (GSK-3β(AA 1-420); [2]) was 500 to 1000 nM.
Cc1cc(Nc2cc(N3CC(C)(O)C3)nc(-c3ccccc3Cl)n2)n[nH]1 [Compound I-7] gave a Ki (GSK-3β(AA 1-420); [2]) of 500 to 1000 nM.
Molecule Cc1cc(Nc2cc(N3CC(O)(C(C)(C)C)C3)nc(-c3ccccc3Cl)n2)n[nH]1 [Compound I-8] has a Ki (GSK-3β(AA 1-420); 300 μM peptide, 20 nM GSK-3β) of 1000 to 5000 nM.
Work on Fc1cnc2[nH]nc(Nc3cc(N4CC(F)(C5CC5)C4)nc(-c4ccccc4Cl)n3)c2c1 [Compound I-9] yielded a Ki (GSK-3β(AA 1-420); 300 μM peptide, 20 nM GSK-3β) of less than 50 nM.
Molecule OC1(C2CC2)CN(c2cc(Nc3n[nH]c4ccc(F)cc34)nc(-c3ccccc3Cl)n2)C1 [Compound I-10] has a Ki (GSK-3β(AA 1-420); 300 μM peptide, 20 nM GSK-3β) of 50 to 500 nM.
In the case of OC1(C2CC2)CN(c2cc(Nc3n[nH]c4ncc(F)cc34)nc(-c3ccccc3Cl)n2)C1 [Compound I-11], the Ki (GSK-3β(AA 1-420); 300 μM peptide, 20 nM GSK-3β) is reported as less than 50 nM.
For Cc1cc(Nc2cc(C3CNC3)nc(-c3ccccc3Cl)n2)n[nH]1 [Compound I-12, 6-(Azetidin-3-yl)-2-(2-chlorophenyl)-N-(5-methyl-1H-pyrazol-3-yl)pyrimidin-4-amine], the Ki (GSK-3β(AA 1-420); 300 μM peptide, 20 nM GSK-3β) was 50 to 500 nM.
In the case of “IGF-1: IGF-1 (insulin growth factor-1), a known GSK-3 inhibitor”, the infarct size [1] is given as “reduced infarct size”.
